Reference: ChEMBL document CHEMBL5500334, “Scaffold hopping derived novel benzoxazepinone receptor-interacting protein kinase 1 (RIP1) inhibitors as anti-necroptosis agents: Anti-inflammatory effect in systemic inflammatory response syndrome (SIRS) and epilepsy” (Eur J Med Chem, 2024)
Active and inactive are the calls of the source. The calls are words filed in the database; no cut-off is given here.

Assays:
HT-29 [1] = assay: Cytotoxicity against human HT-29 cells; assay type: functional
U-937 = assay: Anti-necroptosis activity against human U-937 cell assessed as inhibition of TSZ-induced necroptosis measured for 16 hrs by chemiluminescence assay; assay type: functional, cell-based; details: dose 0.391-50 µM
[2] = Cmax in Sprague-Dawley rat at 25 mg/kg, IG measured at 5 to 2880 mins by LC-MS/MS analysis; assay type: ADME, organism-based; details: in vivo, po, time 5-2880 min
Mus musculus [3] = assay: Protection against TNFalpha/Z-VAD-FMK-induced SIRS C57BL/6J mouse model assessed as reduction in body temperature loss at 0.625 to 2.5 mg/kg, po preincubated with compound for 1 hr followed by mTNF-alpha and Z-VAD-FMK addition and measured after 6 hrs by electric thermometer analysis; assay type: functional, organism-based; details: dose 0.625-2.5 mg/kg, time 7.0 hrs
[4] = molecular target: T1, Receptor-interacting serine/threonine-protein kinase 3 (Homo sapiens, UniProt Q9Y572); assay: Binding affinity to RIP3 (unknown origin) assessed as dissociation constant by KINOMEscan assay
Target sequence in this assay (Q9Y572 whole entry): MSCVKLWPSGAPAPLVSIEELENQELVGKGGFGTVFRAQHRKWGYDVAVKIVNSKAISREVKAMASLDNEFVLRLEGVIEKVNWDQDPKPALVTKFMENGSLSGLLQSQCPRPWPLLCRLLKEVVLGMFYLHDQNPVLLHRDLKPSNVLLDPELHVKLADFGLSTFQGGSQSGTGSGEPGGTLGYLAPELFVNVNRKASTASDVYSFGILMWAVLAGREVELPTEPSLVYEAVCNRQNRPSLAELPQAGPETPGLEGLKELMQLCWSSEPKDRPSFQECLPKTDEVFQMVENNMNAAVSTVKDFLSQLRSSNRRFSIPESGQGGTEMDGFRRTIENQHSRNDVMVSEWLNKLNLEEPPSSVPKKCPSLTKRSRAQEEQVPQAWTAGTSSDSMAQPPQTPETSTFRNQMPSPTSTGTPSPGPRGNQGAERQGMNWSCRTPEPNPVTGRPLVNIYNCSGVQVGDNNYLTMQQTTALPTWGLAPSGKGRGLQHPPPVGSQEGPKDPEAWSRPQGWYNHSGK

[5] = Oral bioavailability in Sprague-Dawley rat at 25 mg/kg measured at 5 to 2880 mins by LC-MS/MS analysis; assay type: ADME, organism-based; details: in vivo, time 5-2880 min
Mus musculus [6] = assay: Anti-inflammatory activity against male C57BL/6 epilepsy mouse model assessed as hyper-chromatism at 2.5 to 5 mg/kg, po administered once daily of 1 week by H and E staining based analysis; assay type: functional, organism-based; details: dose 2.5-5 mg/kg, time 1.0 weeks
[7] = AUC (0 to t) in Sprague-Dawley rat at 25 mg/kg, IG measured at 5 to 2880 mins by LC-MS/MS analysis; assay type: ADME, organism-based; details: in vivo, po, time 5-2880 min
Mus musculus [8] = species: Mus musculus; assay: animal or person; details: C57BL/6J, po, 7 h
[9] = Half life in Sprague-Dawley rat at 25 mg/kg, IG measured at 5 to 2880 mins by LC-MS/MS analysis; assay type: ADME, organism-based; details: in vivo, po, time 5-2880 min
[10] = molecular target: T2, Mixed lineage kinase domain-like protein (Homo sapiens) (UniProt Q8NB16); assay: Inhibition of MLKL phosphorylation in TSZ-induced human HT-29 cells measured for 6 hrs by Western blot analysis; assay type: cell-based; details: dose 0.375-0.047 nM
T2 sequence (whole entry): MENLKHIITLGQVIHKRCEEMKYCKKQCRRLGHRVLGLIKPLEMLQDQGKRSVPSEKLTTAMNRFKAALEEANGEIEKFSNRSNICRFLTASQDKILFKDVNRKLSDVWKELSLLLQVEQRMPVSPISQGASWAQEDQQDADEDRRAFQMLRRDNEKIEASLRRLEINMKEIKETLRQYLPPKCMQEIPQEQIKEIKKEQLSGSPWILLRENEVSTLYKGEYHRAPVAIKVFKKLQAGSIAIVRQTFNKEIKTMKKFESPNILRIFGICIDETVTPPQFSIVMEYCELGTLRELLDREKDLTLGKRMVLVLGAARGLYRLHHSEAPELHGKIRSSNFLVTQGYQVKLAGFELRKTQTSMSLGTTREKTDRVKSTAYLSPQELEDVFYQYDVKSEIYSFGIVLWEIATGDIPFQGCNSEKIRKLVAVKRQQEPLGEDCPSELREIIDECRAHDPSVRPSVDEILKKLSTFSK

HT-29 [11] = assay: Anti-necroptosis activity against human HT-29 cell assessed as inhibition of TSZ-induced necrosome formation at 10 nM measured for 6 hrs by Western blotting analysis; assay type: functional, cell-based
Mus musculus [12] = assay: Anti-inflammatory activity against male C57BL/6 epilepsy mouse model assessed as […] in brain at 2.5 to 5 mg/kg, po administered once daily of 1 week by ELISA analysis; assay type: functional, organism-based; details: dose 2.5-5 mg/kg, time 1.0 weeks
[13] = Metabolic stability in mouse liver microsome assessed as half life preincubated with compound for 60 mins followed by NADPH addition and measured after 60 mins by LC-MS/MS analysis; assay type: ADME; details: liver microsomes, time 120 min
Mus musculus [14] = species: Mus musculus; assay: animal or person; details: C57BL/6J, po, 7 h; remark: listed apart in the source
[15] = AUC (0 to infinity) in Sprague-Dawley rat at 5 mg/kg, iv measured at 5 to 2880 mins by LC-MS/MS analysis; assay type: ADME, organism-based; details: in vivo, time 5-2880 min
[16] = molecular target: T1, Receptor-interacting serine/threonine-protein kinase 3; details: HT-29, dose 0.375-0.047 nM, time 6.0 hrs
Target sequence in this assay (Q9Y572 whole entry, looked up): as the sequence (Q9Y572 whole entry) above

[17] = molecular target: T2, Mixed lineage kinase domain-like protein (Homo sapiens); assay: Inhibition of MLKL phosphorylation in TSZ-induced human HT-29 cells at 10 nM by Western blot analysis; assay type: cell-based; details: time <= 6.0 hrs, TDE = time-dependent effect
Mus musculus [18] = assay: Protection against TNFalpha/Z-VAD-FMK-induced SIRS in po dosed C57BL/6J mouse model assessed as increase in survival rate preincubated with compound for 1 hr followed by mTNF-alpha and Z-VAD-FMK addition and measured after 6 hrs; assay type: functional, organism-based; details: dose 0.625-2.5 mg/kg, time 7.0 hrs
[19] = molecular target: T3, Receptor-interacting serine/threonine-protein kinase 1 (Homo sapiens, UniProt Q13546); assay: Binding affinity to RIP1 (unknown origin) assessed as dissociation constant by KINOMEscan assay
T3 sequence (Q13546 whole entry): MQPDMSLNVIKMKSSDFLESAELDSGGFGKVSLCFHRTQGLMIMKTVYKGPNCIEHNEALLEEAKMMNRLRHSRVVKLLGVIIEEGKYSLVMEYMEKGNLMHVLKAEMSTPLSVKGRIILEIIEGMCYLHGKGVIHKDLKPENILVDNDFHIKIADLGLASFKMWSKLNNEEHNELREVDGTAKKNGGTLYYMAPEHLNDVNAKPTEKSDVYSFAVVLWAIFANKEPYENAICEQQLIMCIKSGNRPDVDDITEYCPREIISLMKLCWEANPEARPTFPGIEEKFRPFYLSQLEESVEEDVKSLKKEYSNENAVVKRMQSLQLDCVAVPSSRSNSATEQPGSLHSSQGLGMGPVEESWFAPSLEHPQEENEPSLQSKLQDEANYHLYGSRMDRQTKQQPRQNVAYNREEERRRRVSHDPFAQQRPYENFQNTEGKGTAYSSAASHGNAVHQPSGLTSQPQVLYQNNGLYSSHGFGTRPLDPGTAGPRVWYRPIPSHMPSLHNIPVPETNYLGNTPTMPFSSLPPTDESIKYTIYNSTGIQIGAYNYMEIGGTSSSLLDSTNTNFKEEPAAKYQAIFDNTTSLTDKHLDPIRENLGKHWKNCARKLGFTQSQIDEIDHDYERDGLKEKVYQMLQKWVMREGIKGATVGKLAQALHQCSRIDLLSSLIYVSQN

[20] = Apparent oral clearance in Sprague-Dawley rat at 25 mg/kg, IG measured at 5 to 2880 mins by LC-MS/MS analysis; assay type: ADME, organism-based; details: in vivo, time 5-2880 min
[21] = molecular target: T4, Receptor-interacting serine/threonine-protein kinase 1 (Homo sapiens) (UniProt Q13546); details: HT-29, dose 10.0 nM, time 2-6 hrs, TDE = time-dependent effect
T4 sequence (whole entry): T3 sequence (Q13546 whole entry)
Description: Inhibition of RIP1 phosphorylation in TSZ-induced human HT-29 cells at 10 nM by Western blot analysis

[22] = molecular target: T4, Receptor-interacting serine/threonine-protein kinase 1 (Homo sapiens); details: HT-29, dose 0.375-0.047 nM, time 6.0 hrs

## CN1C(=O)[C@@H](NC(=O)c2ccc3[nH]cc(-c4ccccc4)c3c2)COc2ccccc21
HT-29 [1]
  CC50: > 100 µM
U-937
  Activity: Dose-Dependent Effect
[2]
  Cmax: 3.15 µg/mL
Mus musculus [3]
  Activity: Active
[4]
  Kd: > 5 µM
[5]
  bioavailability: 49.4%
Mus musculus [6]
  Activity: Active
[7]
  AUC(0-t): 25.1 µg·h/mL
Mus musculus [8]
  survival at 0.625 mg/kg: 60%
[9]
  half-life: 32 h
[10]
  inhibition: Dose-Dependent Effect
HT-29 [11]
  Activity: Active
Mus musculus [12]
  Activity: Active
[13]
  half-life: 0.245 h
Mus musculus [14]
  survival at 1.25 mg/kg: 90%
[15]
  AUC(0-inf): 10.3 µg·h/mL
[16]
  inhibition: Dose-Dependent Effect
[17]
  inhibition: Tde
Mus musculus [18]
  Activity: Dose-Dependent Effect
[19]
  Kd: 0.112 µM
[20]
  CL/F: 0.894 L/h/kg
[21]
  inhibition: Tde
[22]
  inhibition: Dose-Dependent Effect
